Laboratory results reported in patent US8722589B2, “Use of 1-alkyl-5-oxopyrrolidine-3-carboxylic esters as gas hydrate inhibitors with improved biodegradability” (Clariant Finance (BVI) Limited, priority 2007, dated 2014).

Assay: Kinetic gas hydrate inhibition in stirred steel autoclave (water/natural gas)
Conditions: 5000 ppm based on water phase; 50 bar natural gas; cooled 20° C. to 4° C.; water:gas 20:80
Method: (§1) To investigate the inhibiting action of the 1-alkyl-5-oxopyrrolidine-3-carboxylic esters, a stirred steel autoclave with temperature control, pressure and torque sensor of capacity 450 ml was used. For studies of kinetic inhibition, the autoclave was filled with distilled water and gas in a volume ratio of 20:80; for studies of agglomerate inhibition, condensate was additionally added. Subsequently, 50 bar of natural gas were injected.
At first, a pressure decrease corresponding to the thermal compression of the gas is observed. When the formation of gas hydrate nuclei occurs during the cooling time, the pressure measured falls, and a rise in the torque measured and a slight increase in the temperature are observed. […] When the mixture is heated, the gas hydrates decompose, so that the starting state of the experimental series is attained.
(§2) The measure used for the inhibiting action of the product is the time from the attainment of the minimum temperature of 4° C. until the first gas absorption (Tind) or the time until the torque rises (Tagg). Long induction times or agglomeration times indicate an effect as a kinetic inhibitor. The torque measured in the autoclave serves, in contrast, as a parameter for the agglomeration of the hydrate crystals.
Composition of the natural gas used:
The dosage in all tests was 5000 ppm based on the water phase.

First: CC(C)COC(=O)C1CC(=O)N(C)C1 (stereo not shown) [Example 1, isobutyl 1-methyl-5-oxopyrrolidine-3-carboxylate]
Second: CCCCC(CC)COC(=O)C1CC(=O)N(CC(C)C)C1 (stereo not shown) [Example 11, 2-ethylhexyl 1-isobutyl-5-oxopyrrolidine-3-carboxylate]
The “Tagg (time until the torque rises)” value of the first is 1.7-fold lower: 11.0 h for the first, 18.3 h for the second.

`CCCCOCCOCCOCCOC(=O)C1CC(=O)N(CC(C)C)C1` (stereo not shown) [Example 15, butyltriglycol 1-isobutyl-5-oxopyrrolidine-3-carboxylate] and “dipentaerythrityl tetra(1-isobutyl-5-oxopyrrolidine-3-carboxylate) [Example 14]” are within 1.5-fold of each other in “Tagg (time until the torque rises)” value: 17.2 h for the first, 15.9 h for the second.

First: CC(C)CN1CC(C(=O)OCC(COC(=O)C2CC(=O)N(CC(C)C)C2)OC(=O)C2CC(=O)N(CC(C)C)C2)CC1=O (stereo not shown) [Example 12, glyceryl tri(1-isobutyl-5-oxopyrrolidine-3-carboxylate)]
Second: CN1CC(C(=O)OCC(CO)(CO)COC(=O)C2CC(=O)N(C)C2)CC1=O (stereo not shown) [Example 4, pentaerythritol di(1-methyl-5-oxopyrrolidine-3-carboxylate)]
The “Tagg (time until the torque rises)” value of the first is 1.6-fold higher: 18.8 h for the first, 11.5 h for the second.

`CCCCC(CC)COC(=O)C1CC(=O)N(C)C1` (stereo not shown) [Example 2, 2-ethylhexyl 1-methyl-5-oxopyrrolidine-3-carboxylate] and `CC(C)CN1CC(C(=O)OCC(CO)(CO)COC(=O)C2CC(=O)N(CC(C)C)C2)CC1=O` (stereo not shown) [Example 13, pentaerythrityl di(1-isobutyl-5-oxopyrrolidine-3-carboxylate)] are within 1.5-fold of each other in “Tagg (time until the torque rises)” value: 11.7 h for the first, 17.4 h for the second.

`CC(C)COC(=O)C1CC(=O)N(CC(C)C)C1` (stereo not shown) [Example 10, isobutyl 1-isobutyl-5-oxopyrrolidine-3-carboxylate] and `CCCCOCCOCCOCCOC(=O)C1CC(=O)N(C)C1` (stereo not shown) [Example 6, butyltriglycol 1-methyl-5-oxopyrrolidine-3-carboxylate] are within 1.5-fold of each other in “Tagg (time until the torque rises)” value: 17.0 h for the first, 13.4 h for the second.

`CN1CC(C(=O)OCC(COC(=O)C2CC(=O)N(C)C2)OC(=O)C2CC(=O)N(C)C2)CC1=O` (stereo not shown) [Example 3, glyceryl tri(1-methyl-5-oxopyrrolidine-3-carboxylate)] and `CN1CC(C(=O)OCC(CO)(COCC(CO)(COC(=O)C2CC(=O)N(C)C2)COC(=O)C2CC(=O)N(C)C2)COC(=O)C2CC(=O)N(C)C2)CC1=O` (stereo not shown) [Example 5, dipentaerythrityl tetra(1-methyl-5-oxopyrrolidine-3-carboxylate)] are within 1.5-fold of each other in “Tagg (time until the torque rises)” value: 12.5 h for the first, 10.1 h for the second.

First: CC(C)COC(=O)C1CC(=O)N(C)C1 (stereo not shown) [Example 1, isobutyl 1-methyl-5-oxopyrrolidine-3-carboxylate]
Second: CCCCC(CC)COC(=O)C1CC(=O)N(CC(C)C)C1 (stereo not shown) [Example 11, 2-ethylhexyl 1-isobutyl-5-oxopyrrolidine-3-carboxylate]
The “Tind (time from attainment of 4° C. until first gas absorption)” value (from here on “Tind”) of the first is 1.6-fold lower: 10.9 h for the first, 17.5 h for the second.

`CCCCOCCOCCOCCOC(=O)C1CC(=O)N(CC(C)C)C1` (stereo not shown) [Example 15, butyltriglycol 1-isobutyl-5-oxopyrrolidine-3-carboxylate] and “dipentaerythrityl tetra(1-isobutyl-5-oxopyrrolidine-3-carboxylate) [Example 14]” are within 1.5-fold of each other in “Tind” value: 16.1 h for the first, 15.3 h for the second.

Going from `CC(C)CN1CC(C(=O)OCC(COC(=O)C2CC(=O)N(CC(C)C)C2)OC(=O)C2CC(=O)N(CC(C)C)C2)CC1=O` (stereo not shown) [Example 12, glyceryl tri(1-isobutyl-5-oxopyrrolidine-3-carboxylate)] to `CN1CC(C(=O)OCC(CO)(CO)COC(=O)C2CC(=O)N(C)C2)CC1=O` (stereo not shown) [Example 4, pentaerythritol di(1-methyl-5-oxopyrrolidine-3-carboxylate)], the “Tind” value falls from 18.1 h to 11.4 h (1.6-fold).

`CCCCC(CC)COC(=O)C1CC(=O)N(C)C1` (stereo not shown) [Example 2, 2-ethylhexyl 1-methyl-5-oxopyrrolidine-3-carboxylate] and `CC(C)CN1CC(C(=O)OCC(CO)(CO)COC(=O)C2CC(=O)N(CC(C)C)C2)CC1=O` (stereo not shown) [Example 13, pentaerythrityl di(1-isobutyl-5-oxopyrrolidine-3-carboxylate)] are within 1.5-fold of each other in “Tind” value: 11.5 h for the first, 16.9 h for the second.

`CC(C)COC(=O)C1CC(=O)N(CC(C)C)C1` (stereo not shown) [Example 10, isobutyl 1-isobutyl-5-oxopyrrolidine-3-carboxylate] and `CCCCOCCOCCOCCOC(=O)C1CC(=O)N(C)C1` (stereo not shown) [Example 6, butyltriglycol 1-methyl-5-oxopyrrolidine-3-carboxylate] are within 1.5-fold of each other in “Tind” value: 16.1 h for the first, 13.1 h for the second.

`CN1CC(C(=O)OCC(COC(=O)C2CC(=O)N(C)C2)OC(=O)C2CC(=O)N(C)C2)CC1=O` (stereo not shown) [Example 3, glyceryl tri(1-methyl-5-oxopyrrolidine-3-carboxylate)] and `CN1CC(C(=O)OCC(CO)(COCC(CO)(COC(=O)C2CC(=O)N(C)C2)COC(=O)C2CC(=O)N(C)C2)COC(=O)C2CC(=O)N(C)C2)CC1=O` (stereo not shown) [Example 5, dipentaerythrityl tetra(1-methyl-5-oxopyrrolidine-3-carboxylate)] are within 1.5-fold of each other in “Tind” value: 12.0 h for the first, 10.0 h for the second.

Assay: Agglomerate inhibition in stirred autoclave (water/white spirit/natural gas)
Conditions: 5000 ppm based on water phase; water and white spirit 1:2; 50 bar; 500 rpm; 4° C.
Method: as §1, §2
In order to test the action as agglomerate inhibitors, the test autoclave used above was initially charged with water and white spirit (20% of the volume in a ratio of 1:2) and, based on the water phase, 5000 ppm of the particular additive were added.
At an autoclave pressure of 50 bar and a stirrer speed of 500 rpm, the temperature was cooled from initially 20° C. within 3 hours to 4° C., then the autoclave was stirred at 4° C. for 18 hours and heated up again. In the course of this, the agglomeration time up to occurrence of gas hydrate agglomerates and the torque which occurred on the stirrer at that time were measured, the latter being a measure of the agglomeration of the gas hydrates.
The comparative substance employed was a commercially available antiagglomerant (quaternary ammonium salt).

First: CCCCCCCC/C=C\CCCCCCCCN1CC(C(=O)OCC(COC(=O)C2CC(=O)N(CCCCCCCC/C=C\CCCCCCCC)C2)OC(=O)C2CC(=O)N(CCCCCCCC/C=C\CCCCCCCC)C2)CC1=O (stereo not shown) [Example 21, glyceryl tri(1-oleyl-5-oxopyrrolidine-3-carboxylate)]
Second: (oleyl alcohol+5 EO) 1-isobutyl-5-oxopyrrolidine-3-carboxylate [Example 16]
The “Mmax (torque on the stirrer)” value of the first is higher: 2.0 Ncm for the first, 1.0 Ncm for the second.

Going from `CCCCCCCC/C=C\CCCCCCCCN1CC(C(=O)OCC(CO)(COCC(CO)(COC(=O)C2CC(=O)N(CCCCCCCC/C=C\CCCCCCCC)C2)COC(=O)C2CC(=O)N(CCCCCCCC/C=C\CCCCCCCC)C2)COC(=O)C2CC(=O)N(CCCCCCCC/C=C\CCCCCCCC)C2)CC1=O` (stereo not shown) [Example 23, dipentaerythrityl tetra(1-oleyl-5-oxopyrrolidine-3-carboxylate)] to `CCCCCCCC/C=C\CCCCCCCCN1CC(C(=O)OCC(C)C)CC1=O` (stereo not shown) [Example 19, isobutyl 1-oleyl-5-oxopyrrolidine-3-carboxylate], the “Mmax (torque on the stirrer)” value falls from 2.0 Ncm to 1.2 Ncm.

First: (oleyl alcohol+5 EO) 1-methyl-5-oxopyrrolidine-3-carboxylate [Example 7]
Second: CCCCCCCC/C=C\CCCCCCCCN1CC(C(=O)OCC(CO)(CO)COC(=O)C2CC(=O)N(CCCCCCCC/C=C\CCCCCCCC)C2)CC1=O (stereo not shown) [Example 22, pentaerythrityl di(1-oleyl-5-oxopyrrolidine-3-carboxylate)]
The “Mmax (torque on the stirrer)” value of the first is lower: 0.9 Ncm for the first, 1.9 Ncm for the second.

For `CCCCCCCC/C=C\CCCCCCCCN1CC(C(=O)OCC(CC)CCCC)CC1=O` (stereo not shown) [Example 20, 2-ethylhexyl 1-oleyl-5-oxopyrrolidine-3-carboxylate], the “Mmax (torque on the stirrer)” value was 2.1 Ncm.

Going from `CCCCCCCC/C=C\CCCCCCCCN1CC(C(=O)OCC(COC(=O)C2CC(=O)N(CCCCCCCC/C=C\CCCCCCCC)C2)OC(=O)C2CC(=O)N(CCCCCCCC/C=C\CCCCCCCC)C2)CC1=O` (stereo not shown) [Example 21, glyceryl tri(1-oleyl-5-oxopyrrolidine-3-carboxylate)] to “(oleyl alcohol+5 EO) 1-isobutyl-5-oxopyrrolidine-3-carboxylate [Example 16]”, the “Tagg (agglomeration time up to occurrence of gas hydrate agglomerates)” value rises from 2.9 h to 5.9 h (2-fold).

First: CCCCCCCC/C=C\CCCCCCCCN1CC(C(=O)OCC(CO)(COCC(CO)(COC(=O)C2CC(=O)N(CCCCCCCC/C=C\CCCCCCCC)C2)COC(=O)C2CC(=O)N(CCCCCCCC/C=C\CCCCCCCC)C2)COC(=O)C2CC(=O)N(CCCCCCCC/C=C\CCCCCCCC)C2)CC1=O (stereo not shown) [Example 23, dipentaerythrityl tetra(1-oleyl-5-oxopyrrolidine-3-carboxylate)]
Second: CCCCCCCC/C=C\CCCCCCCCN1CC(C(=O)OCC(C)C)CC1=O (stereo not shown) [Example 19, isobutyl 1-oleyl-5-oxopyrrolidine-3-carboxylate]
The “Tagg (agglomeration time up to occurrence of gas hydrate agglomerates)” value of the first is 1.6-fold lower: 3.8 h for the first, 6.0 h for the second.

Compared with “(oleyl alcohol+5 EO) 1-methyl-5-oxopyrrolidine-3-carboxylate [Example 7]”, `CCCCCCCC/C=C\CCCCCCCCN1CC(C(=O)OCC(CO)(CO)COC(=O)C2CC(=O)N(CCCCCCCC/C=C\CCCCCCCC)C2)CC1=O` (stereo not shown) [Example 22, pentaerythrityl di(1-oleyl-5-oxopyrrolidine-3-carboxylate)] is 1.7-fold lower in “Tagg (agglomeration time up to occurrence of gas hydrate agglomerates)” value: 6.5 h for the first, 3.8 h for the second.

For `CCCCCCCC/C=C\CCCCCCCCN1CC(C(=O)OCC(CC)CCCC)CC1=O` (stereo not shown) [Example 20, 2-ethylhexyl 1-oleyl-5-oxopyrrolidine-3-carboxylate], the “Tagg (agglomeration time up to occurrence of gas hydrate agglomerates)” value was 3.5 h.

Assay: Biodegradability to OECD 306
Conditions: not given

Compared with `CC(C)CN1CC(C(=O)OCC(COC(=O)C2CC(=O)N(CC(C)C)C2)OC(=O)C2CC(=O)N(CC(C)C)C2)CC1=O` (stereo not shown) [Example 12, glyceryl tri(1-isobutyl-5-oxopyrrolidine-3-carboxylate)], `CN1CC(C(=O)OCC(COC(=O)C2CC(=O)N(C)C2)OC(=O)C2CC(=O)N(C)C2)CC1=O` (stereo not shown) [Example 3, glyceryl tri(1-methyl-5-oxopyrrolidine-3-carboxylate)] is higher in “Biodegradability 28 days (OECD 306)” value: 85 for the first, 90 for the second.
